Results taken from PubChem BioAssay (NCI).
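Test compounds were applied to cells in 96-well plates for 48 hours at 5 doses. At the TGI there is no net growth.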

Key:
Assay in all cases: NCI tumour cell line growth inhibition, 48 h
786-0 renal = tested on: 786-0 renal
A498 renal = tested on: A498 renal
A549 NSCLC = tested on: A549 NSCLC
ACHN renal = tested on: ACHN renal
BT-549 breast = tested on: BT-549 breast
CAKI-1 renal = tested on: CAKI-1 renal
CCRF-CEM leukemia = tested on: CCRF-CEM leukemia
COLO 205 colon = tested on: COLO 205 colon
DLD-1 colon = tested on: DLD-1 colon
DMS 114 small cell lung = tested on: DMS 114 small cell lung
DMS 273 small cell lung = tested on: DMS 273 small cell lung
DU-145 prostate = tested on: DU-145 prostate
EKVX NSCLC = tested on: EKVX NSCLC
HCC-2998 colon = tested on: HCC-2998 colon
HCT-116 colon = tested on: HCT-116 colon
HCT-15 colon = tested on: HCT-15 colon
HL-60(TB) leukemia = tested on: HL-60(TB) leukemia
HOP-18 NSCLC = tested on: HOP-18 NSCLC
HOP-62 NSCLC = tested on: HOP-62 NSCLC
HOP-92 NSCLC = tested on: HOP-92 NSCLC
HS 578T breast = tested on: HS 578T breast
HT29 colon = tested on: HT29 colon
IGROV1 ovarian = tested on: IGROV1 ovarian
K-562 leukemia = tested on: K-562 leukemia
KM12 colon = tested on: KM12 colon
KM20L2 colon = tested on: KM20L2 colon
LOX IMVI melanoma = tested on: LOX IMVI melanoma
LXFL 529 NSCLC = tested on: LXFL 529 NSCLC
M14 melanoma = tested on: M14 melanoma
M19-MEL melanoma = tested on: M19-MEL melanoma
MALME-3M melanoma = tested on: MALME-3M melanoma
MCF7 breast = tested on: MCF7 breast
MDA-MB-231 breast = tested on: MDA-MB-231 breast
MDA-MB-435 = tested on: MDA-MB-435
MDA-N = tested on: MDA-N
MOLT-4 leukemia = tested on: MOLT-4 leukemia
NCI-H226 lung = tested on: NCI-H226 lung
NCI-H23 lung = tested on: NCI-H23 lung
NCI-H460 lung = tested on: NCI-H460 lung
NCI-H522 lung = tested on: NCI-H522 lung
NCI/ADR-RES ovarian = tested on: NCI/ADR-RES ovarian
OVCAR-3 ovarian = tested on: OVCAR-3 ovarian
OVCAR-4 ovarian = tested on: OVCAR-4 ovarian
OVCAR-5 ovarian = tested on: OVCAR-5 ovarian
OVCAR-8 ovarian = tested on: OVCAR-8 ovarian
PC-3 prostate = tested on: PC-3 prostate
RPMI-8226 leukemia = tested on: RPMI-8226 leukemia
RXF 393 renal = tested on: RXF 393 renal
SF-268 CNS = tested on: SF-268 CNS
SF-295 CNS = tested on: SF-295 CNS
SF-539 CNS = tested on: SF-539 CNS
SK-MEL-2 melanoma = tested on: SK-MEL-2 melanoma
SK-MEL-28 melanoma = tested on: SK-MEL-28 melanoma
SK-MEL-5 melanoma = tested on: SK-MEL-5 melanoma
SK-OV-3 ovarian = tested on: SK-OV-3 ovarian
SN12C renal = tested on: SN12C renal
SNB-19 CNS = tested on: SNB-19 CNS
SNB-75 CNS = tested on: SNB-75 CNS
SNB-78 CNS = tested on: SNB-78 CNS
SR leukemia = tested on: SR leukemia
SW-620 colon = tested on: SW-620 colon
T-47D breast = tested on: T-47D breast
TK-10 renal = tested on: TK-10 renal
U251 CNS = tested on: U251 CNS
UACC-257 melanoma = tested on: UACC-257 melanoma
UACC-62 melanoma = tested on: UACC-62 melanoma
UO-31 renal = tested on: UO-31 renal
XF 498 CNS = tested on: XF 498 CNS
RXF-631 renal = tested on: RXF-631 renal

Measured: TGI

CC(C)CC(NC(=O)OC(C)(C)C)C(=O)Nc1ccc(Nc2nc(F)nc(-c3c4ccccc4cn3C)n2)cc1 (stereo not given)
> 68 µM: SNB-78 CNS
49.3 µM: COLO 205 colon
> 74.1 µM: SR leukemia
40.2 µM: HCC-2998 colon
31.4 µM: MCF7 breast
42.6 µM: HOP-62 NSCLC
42.3 µM: KM12 colon
54.9 µM: HT29 colon
33 µM: HL-60(TB) leukemia
63 µM: OVCAR-3 ovarian
> 46.4 µM: U251 CNS
> 81.1 µM: EKVX NSCLC
> 58 µM: DLD-1 colon
> 72.4 µM: DMS 114 small cell lung
> 54.4 µM: SW-620 colon
> 87.1 µM: RXF 393 renal
39.7 µM: DU-145 prostate
22.4 µM: RPMI-8226 leukemia
not listed: RXF-631 renal
> 100 µM: all other assays above

O=C(O)CCc1nn2c(nc1=O)sc1ccc3ccccc3c12
not listed: A498 renal | BT-549 breast | DU-145 prostate | HS 578T breast | KM12 colon | MCF7 breast | MDA-MB-231 breast | MDA-MB-435 | MDA-N | NCI-H522 lung | NCI/ADR-RES ovarian | OVCAR-5 ovarian | PC-3 prostate | SK-MEL-2 melanoma | T-47D breast
> 100 µM: all other assays above

Cc1cc(Cl)ccc1NC(=O)CC1SC(=Nc2ccccc2Cl)NC1=O (stereo not given)
40.4 µM: HL-60(TB) leukemia
55.3 µM: SF-539 CNS
70.2 µM: SR leukemia
88.2 µM: KM20L2 colon
47.1 µM: COLO 205 colon
80.4 µM: NCI-H522 lung
84.3 µM: RXF 393 renal
67.5 µM: DMS 114 small cell lung
not listed: BT-549 breast | DU-145 prostate | HS 578T breast | LOX IMVI melanoma | MCF7 breast | MDA-MB-231 breast | MDA-MB-435 | MDA-N | NCI/ADR-RES ovarian | PC-3 prostate | T-47D breast
> 100 µM: all other assays above
